Assay results taken from article PMC10818454, “The Development of an Oral Solution Containing Nirmatrelvir and Ritonavir and Assessment of Its Pharmacokinetics and Stability” (Pharmaceutics, 2024).
≈ marks a conversion by molar mass, not a printed value. Like-named read-outs stand apart in the source and are kept apart here.

Assays:
[1] = Solubility in organic solvents; format: physicochemical; details: organic solvent or mixture
Method: The solubility of NRV in organic solvents, including ethanol, propylene glycol, and ethyl acetate, was tested.

[2] = design: method as in PMID 36015346; details: cited from earlier work
[3] = Recrystallization inhibition by surfactants (solvent shift supersaturation); format: physicochemical; details: 180 min
Method: The solvent shift method was used to create supersaturation. […] The solution was mixed at 50 r/min and 37 °C. A 3 mL sample of the solution was obtained at predetermined time intervals for measurement and supplemented with an equal volume of fresh medium. […] All tests were performed in triplicate.
Particle size measurements were performed at different time points using a Malvern Nano ZSP instrument (Malvern, UK). All tests were performed at 25 °C.

[4] = cited from earlier work
[5] = Equilibrium solubility in water and buffers (saturated shake-flask, 37 °C, 24 h); format: physicochemical
Method: The solubility of active pharmaceutical ingredients (API) in water and buffers with various pH values (pH 1.2–pH 7.4) was investigated to guide formulation screening. The equilibrium solubility method was performed based on the saturated shake-flask solubility technique. An excess of each API was added into volumetric flasks containing the medium and placed in a thermostatic shaking chamber (HNY-2102C, Tianjin, China) for 24 h of continuous shaking (150 r/min) at 37 °C. The supernatant was filtered through a 0.45 μm PTFE filter membrane, and then an equal amount of methanol was added to prevent API precipitation. The concentrations were quantified using HPLC. Content analysis was performed using an HPLC system (Thermo Fisher Scientific, Waltham, MA, USA) using methanol:water (88:12, v/v) as the mobile phase. The injection volume of the filtered sample was 10 µL. Separation was performed using an Agilent C18 column (4.60 mm × 250 mm, 5 μm) with a mobile-phase flow rate of 1.0 mL/min. The detection wavelength was set at 203 nm.

[6] = Solubility in aqueous solutions of different surfactants (0.2% m/v); details: vs no surfactant
SARS-CoV-2 Mpro = system: SARS-CoV-2 Mpro; design: method as in PMID 20937904; details: cited from earlier work

For CC(C)(C)[C@H](NC(=O)C(F)(F)F)C(=O)N1C[C@H]2[C@@H]([C@H]1C(=O)N[C@H](C#N)C[C@@H]1CCNC1=O)C2(C)C [NRV, (1R,2S,5S)-N-((1S)-1-Cyano-2-((3S)-2-oxopyrrolidin-3-yl)ethyl)-3-((2S)-3,3-dimethyl-2-(2,2,2-trifluoroacetamido)butanoyl)-6,6-dimethyl-3-azabicyclo [3.1.0] hexane-2-carboxamide], the solubility ([1]; ethanol, read-out: Solubility in ethanol (crude concentration)) was 16.5 to 33 mg/mL (≈ 33000 to 66100 µM), the solubility ([1]; ethyl acetate, read-out: Solubility in ethyl acetate (crude concentration)) was greater than 57 mg/mL and the solubility ([1]; propylene glycol, read-out: Solubility in propylene glycol (crude concentration)) was less than 1.6 mg/mL. The “Stability under oxidative and photolytic conditions” value [2] was “stable”, the “Stability under strongly acidic and alkaline conditions” value [2] was “hydrolytic” and the “Change of concentration of supersaturated solution vs original concentration” value ([3]; aqueous surfactant solutions, 37 °C) was “no significant alteration”. The BCS class [4] was “II/IV”, the “Logp (Table S1)” value ([4]; predictive, ref 1–3 (supplement)) was 0.845 and the “BCS classification (Table S1)” value ([4]; ref 1–3 (supplement)) was “BCS II / IV”. The “Solubility in words (Table S1)” value ([4]; ref 1–3 (supplement)) was “low solubility in water and buffered aqueous media”, the solubility at 24 h ([5]; aqueous buffer, thermodynamic from solid, pH 2.0, 37 °C, read-out: Solubility (concentration, mean ± SD)) was 983.2 ± 5.4 µg/mL (≈ 1970 µM) and the solubility at 24 h ([5]; aqueous buffer, thermodynamic from solid, pH 3.8, 37 °C, read-out: Solubility (concentration, mean ± SD)) was 974.7 ± 4.8 µg/mL (≈ 1950 µM). For the same compound, the solubility at 24 h ([5]; aqueous buffer, thermodynamic from solid, pH 4.5, 37 °C, read-out: Solubility (concentration, mean ± SD)) was 973.5 ± 5.3 µg/mL (≈ 1950 µM), the solubility at 24 h ([5]; aqueous buffer, thermodynamic from solid, pH 6.8, 37 °C, read-out: Solubility (concentration, mean ± SD)) was 957.8 ± 7.5 µg/mL (≈ 1920 µM) and the solubility at 24 h ([5]; aqueous buffer, thermodynamic from solid, pH 7.4, 37 °C, read-out: Solubility (concentration, mean ± SD)) was 998.8 ± 6.2 µg/mL (≈ 2000 µM). It also gave a solubility at 24 h ([5]; buffers pH 1.2–8.0, read-out: Solubility in each buffer) of 950 to 1000 µg/mL (≈ 1900 to 2000 µM), a solubility at 24 h ([5]; thermodynamic from solid, pH 1.2, 37 °C, read-out: Solubility (concentration, mean ± SD)) of 997.7 ± 6.5 µg/mL (≈ 2000 µM) and a solubility at 24 h ([5]; water, 37 °C, read-out: Solubility in water) of 953.1 ± 7.6 µg/mL (≈ 1910 µM). For the same compound, the “Change of solubility in the presence of poloxamer” value [6] was “no significant change” and the “Change of solubility in the presence of HCO and Tween” value ([6]; p < 0.05) was “increased”.

In the case of CC(C)c1nc(CN(C)C(=O)N[C@H](C(=O)N[C@@H](Cc2ccccc2)C[C@H](O)[C@H](Cc2ccccc2)NC(=O)OCc2cncs2)C(C)C)cs1 [RTV, 10-Hydroxy-2-methyl-5-(1-methylethyl)-1-[2-(1methylethyl)-4-thiazolyl]-3,6-dioxo-8,11-bis(phenylmethyl)-2,4,7,12-tetraazatridecan-13-oic acid, 5-thiazolylmethyl ester, [5S-(5R*,8R*,10R*,11R*)]], the “Concentration of supersaturated solution during the experimental period” value ([3]; with HCO and Tween, p < 0.001 vs no surfactant) is listed as “effectively sustained”, the “BCS classification (Table S1)” value ([4]; ref 1–3 (supplement)) is listed as “BCS II” and the “Activity against SARS-CoV-2 Mpro” value (SARS-CoV-2 Mpro) is listed as “inactive”.
